Data taken from PubChem BioAssay AID1919005 (Molecular Pharmacology Branch, DTP, NCI, 2023).

Tested on: 855422-203-R-J1-PDC complex spheroid growth
Assay: Anticancer human tumor 855422-203-R-J1-PDC patient-derived bladder carcinoma cell line growth inhibition [AhR]
Conditions: for IC50: curve of first compound; for viability, T/C: stronger effect = lower value; active means viability on the fitted dose curve at most 10% of control; inactive means the rest
Description: Multicellular complex tumor spheroid response to aryl hydrocarbon receptor antagonists in combination with a variety of drugs and investigational agents in selected tumor cell lines
The current study was undertaken to assess response to aryl hydrocarbon receptor antagonists in combination with standard-of-care drugs and investigational agents in solid tumor complex spheroid models. Complex spheroids include a stromal component modeled by human endothelial cells (HUVEC) and fibroblasts modeled by human mesenchymal stem cells (MSCs). The concentration ranges selected for each drug and investigational agent were based upon clinically achievable concentrations if the clinical Cmax of the agent was known.
Compounds. The drugs and investigational agents: BAY 2416964 (NSC825713), GNF351 (NSC835774), CH-223191 (NSC835775), CPI-455 (NSC825282), aza-TdCyd (NSC777586), decitabine (NSC127716), belinostat (NSC758774), entinostat (NSC756642), pevonedistat (NSC761192), tazemetostat (NSC777109), talazoparib (NSC765396), olaparib (NSC753686), selinexor (NSC780203), nedisertib (M3814, NSC802822), bortezomib (NSC756655), venetoclax (NSC766270), doxorubicin (NSC123127), elimusertib (BAY189344, NSC800525), ceralasertib (AZD6738, NSC777638), TAK-243 (NSC785004), alisertib (NSC759677), etoposide (NSC141540), topotecan (NSC609699), eribulin (NSC707389), gemcitabine (NSC613327), carboplatin (NSC241240), cisplatin (NSC119875), and SN-38 (NSC673596) were obtained from the National Cancer Institute (NCI) Developmental Therapeutics Program Chemical Repository (32). The FDA-approved anticancer drug set is available from the Developmental Therapeutics Program at https://dtp.cancer.gov/organization/dscb/obtaining/available plates.htm. […] The stock solutions were prepared in dimethyl sulfoxide (DMSO, Sigma-Aldrich, St. Louis, MO, cat. D2650), except for the platinum compounds which were prepared in saline (Quality Biological, Gaithersburg, MD, cat. 114-055-101), at 800-fold the tested concentration and stored at -70 degrees C prior to their use. All drugs and investigational agents were tested over a range starting from a high concentration at or near the clinical Cmax and decreasing in half-log increments. If the clinical Cmax for an agent had not been determined, the highest concentration tested was 10 microM (Table 1).
Cell Culture. All cells were maintained in an incubator at 37 degrees C and 5% CO2 with 95% humidity. The PDC lines were cultured according to standard operating procedures established by the NCI PDMR (https://pdmr.cancer.gov). Briefly, all PDCs were thawed and cultured in Matrigel-coated flasks prepared with a working solution of 1X Ham's F-12 nutrient mix, without supplementation (Invitrogen, Waltham, MA, cat. 11765054), 100 U/mL penicillin-streptomycin (Invitrogen, cat. 15140122), and 2.5% Matrigel (Corning Inc., Corning, NY, cat. 354248) for the first three passages. All PDCs were cultured in complete DMEM/F-12 media containing advanced DMEM/F-12 (Invitrogen, cat. 12634028), 4.9% defined fetal bovine serum, heat inactivated (HyClone Laboratories Inc., Logan, UT, cat. SH30070.03HI), 389 ng/mL hydrocortisone (Sigma-Aldrich, cat. H4001), 9.7 ng/mL human EGF recombinant protein (Invitrogen, cat. PHG0313), 23.4 microg/mL adenine (Sigma-Aldrich, cat. A2786), 97.3 U/mL penicillin-streptomycin (Invitrogen, cat. 15140122), 1.9 mM L-glutamine (Invitrogen, cat. 25030081), and 9.7 microM Y-27632 dihydrochloride (Tocris Bioscience, Bristol, United Kingdom, cat. 1254). The PDCs were cultured in complete DMEM/F12 media without 10 microM Y-27632 dihydrochloride for at least two passages prior to the screen. The established cell lines NCI-H1341 and […] were cultured in DMEM/F-12, HEPES (Invitrogen, cat. 11330032), 5% defined fetal bovine serum (HyClone Laboratories Inc., cat. SH30070.03), ITS premix universal culture supplement [insulin (5 microg/mL), transferrin (5 microg/mL), and selenious acid (5 ng/mL)] […]

[1] = second compound 0.1 µM, first compound 0.0316 µM
[2] = second compound 0.1 µM, first compound 0.1 µM
[3] = second compound 0.1 µM, first compound 0.316 µM
[4] = second compound 0.1 µM, first compound 1 µM
[5] = second compound 0.316 µM, first compound 0.0316 µM
[6] = second compound 0.316 µM, first compound 0.1 µM
[7] = second compound 0.316 µM, first compound 0.316 µM
[8] = second compound 0.316 µM, first compound 1 µM
[9] = second compound 1 µM, first compound 0.0316 µM
[10] = second compound 1 µM, first compound 0.1 µM
[11] = second compound 1 µM, first compound 0.316 µM
[12] = second compound 1 µM, first compound 1 µM
[13] = second compound 3.16 µM, first compound 0.0316 µM
[14] = second compound 3.16 µM, first compound 0.1 µM
[15] = second compound 3.16 µM, first compound 0.316 µM
[16] = second compound 3.16 µM, first compound 1 µM
[17] = second compound 10 µM, first compound 0.0316 µM
[18] = second compound 10 µM, first compound 0.1 µM
[19] = second compound 10 µM, first compound 0.316 µM
[20] = second compound 10 µM, first compound 1 µM
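Further: spheroids exposed to agents for seven days before readout.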
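Wherever viability, T/C is given: percent of DMSO vehicle control luminescence viability.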

COc1cccc2c1C(=O)c1c(O)c3c(c(O)c1C2=O)CC(O)(C(=O)CO)CC3OC1CC(N)C(O)C(C)O1 (stereo not given) + CC(CO)NC(=O)c1cc(-c2ccc(Cl)cc2)nn(-c2cnn(C)c2)c1=O
inactive: viability, T/C [1] 34.3% | viability, T/C [2] 21.9% | viability, T/C [5] 31.6% | viability, T/C [6] 21.3% | viability, T/C [9] 37.7% | viability, T/C [10] 21.3% | viability, T/C [13] 32% | viability, T/C [14] 17.5% | viability, T/C [17] 32.9% | viability, T/C [18] 17.8%
active: viability, T/C [3] 4.3% | viability, T/C [4] 1.57% | viability, T/C (second compound 0.1 µM, first compound 3.16 µM) 1.7% | viability, T/C (second compound 0.1 µM, first compound 10 µM) 2.88% | viability, T/C [7] 3.51% | viability, T/C [8] 1.36% | viability, T/C (second compound 0.316 µM, first compound 3.16 µM) 1.02% | viability, T/C (second compound 0.316 µM, first compound 10 µM) 2.82% | viability, T/C [11] 3.4% | viability, T/C [12] 1.68% | viability, T/C (second compound 1 µM, first compound 3.16 µM) 0.81% | viability, T/C (second compound 1 µM, first compound 10 µM) 3.37% | viability, T/C [15] 2.92% | viability, T/C [16] 1.21% | viability, T/C (second compound 3.16 µM, first compound 3.16 µM) 0.84% | viability, T/C (second compound 3.16 µM, first compound 10 µM) 4.27% | viability, T/C [19] 2.64% | viability, T/C [20] 0.53% | viability, T/C (second compound 10 µM, first compound 3.16 µM) 0.94% | viability, T/C (second compound 10 µM, first compound 10 µM) 5.77%
< 31.6 nM: IC50 (second compound 0.1 µM) | IC50 (second compound 0.316 µM) | IC50 (second compound 1 µM) | IC50 (second compound 3.16 µM) | IC50 (second compound 10 µM)

Nc1ncn(C2CC(O)C(CO)S2)c(=O)n1 (stereo not given) + Cc1ccccc1N=Nc1ccc(NC(=O)c2ccnn2C)c(C)c1
> 300 nM: IC50 (second compound 0.1 µM) | IC50 (second compound 0.316 µM) | IC50 (second compound 1 µM) | IC50 (second compound 3.16 µM) | IC50 (second compound 10 µM)
inactive: viability, T/C (second compound 0.1 µM, first compound 0.000949 µM) 99.8% | viability, T/C (second compound 0.1 µM, first compound 0.003 µM) 94.9% | viability, T/C (second compound 0.1 µM, first compound 0.00949 µM) 98% | viability, T/C (second compound 0.1 µM, first compound 0.03 µM) 95.9% | viability, T/C (second compound 0.1 µM, first compound 0.0949 µM) 97% | viability, T/C (second compound 0.1 µM, first compound 0.3 µM) 93.8% | viability, T/C (second compound 0.316 µM, first compound 0.000949 µM) 104% | viability, T/C (second compound 0.316 µM, first compound 0.003 µM) 97.7% | viability, T/C (second compound 0.316 µM, first compound 0.00949 µM) 97.7% | viability, T/C (second compound 0.316 µM, first compound 0.03 µM) 99.8% | viability, T/C (second compound 0.316 µM, first compound 0.0949 µM) 95.4% | viability, T/C (second compound 0.316 µM, first compound 0.3 µM) 101% | viability, T/C (second compound 1 µM, first compound 0.000949 µM) 100% | viability, T/C (second compound 1 µM, first compound 0.003 µM) 100% | viability, T/C (second compound 1 µM, first compound 0.00949 µM) 92.5% | viability, T/C (second compound 1 µM, first compound 0.03 µM) 98.2% | viability, T/C (second compound 1 µM, first compound 0.0949 µM) 98% | viability, T/C (second compound 1 µM, first compound 0.3 µM) 92.6% | viability, T/C (second compound 3.16 µM, first compound 0.000949 µM) 98.9% | viability, T/C (second compound 3.16 µM, first compound 0.003 µM) 87.2% | viability, T/C (second compound 3.16 µM, first compound 0.00949 µM) 90.2% | viability, T/C (second compound 3.16 µM, first compound 0.03 µM) 86.3% | viability, T/C (second compound 3.16 µM, first compound 0.0949 µM) 93.7% | viability, T/C (second compound 3.16 µM, first compound 0.3 µM) 84.5% | viability, T/C (second compound 10 µM, first compound 0.000949 µM) 87.6% | viability, T/C (second compound 10 µM, first compound 0.003 µM) 80.8% | viability, T/C (second compound 10 µM, first compound 0.00949 µM) 82% | viability, T/C (second compound 10 µM, first compound 0.03 µM) 90.3% | viability, T/C (second compound 10 µM, first compound 0.0949 µM) 91.4% | viability, T/C (second compound 10 µM, first compound 0.3 µM) 78%

Nc1ncn(C2CC(O)C(CO)O2)c(=O)n1 (stereo not given) + Cc1cncc(-c2nc(NCCc3c[nH]c4ccccc34)c3ncn(C(C)C)c3n2)c1
active: viability, T/C (second compound 10 µM, first compound 0.01 µM) 6.45% | viability, T/C [17] 2.54% | viability, T/C [18] 7.37% | viability, T/C [19] 9.7% | viability, T/C [20] 7.88%
< 3.16 nM: IC50 (second compound 10 µM)
inactive: viability, T/C (second compound 0.1 µM, first compound 0.00316 µM) 99.1% | viability, T/C (second compound 0.1 µM, first compound 0.01 µM) 94.1% | viability, T/C [1] 88.8% | viability, T/C [2] 86.2% | viability, T/C [3] 82% | viability, T/C [4] 77.5% | viability, T/C (second compound 0.316 µM, first compound 0.00316 µM) 86.8% | viability, T/C (second compound 0.316 µM, first compound 0.01 µM) 88.5% | viability, T/C [5] 81.9% | viability, T/C [6] 79.8% | viability, T/C [7] 82.5% | viability, T/C [8] 75% | viability, T/C (second compound 1 µM, first compound 0.00316 µM) 91.9% | viability, T/C (second compound 1 µM, first compound 0.01 µM) 90% | viability, T/C [9] 85.5% | viability, T/C [10] 86.4% | viability, T/C [11] 82.4% | viability, T/C [12] 74.6% | viability, T/C (second compound 3.16 µM, first compound 0.00316 µM) 79.9% | viability, T/C (second compound 3.16 µM, first compound 0.01 µM) 86.5% | viability, T/C [13] 79.3% | viability, T/C [14] 71.4% | viability, T/C [15] 82% | viability, T/C [16] 69% | viability, T/C (second compound 10 µM, first compound 0.00316 µM) 10.8%
> 1000 nM: IC50 (second compound 0.1 µM) | IC50 (second compound 0.316 µM) | IC50 (second compound 1 µM) | IC50 (second compound 3.16 µM)
